According to patent US7348163B2, “Human GABAB receptor 1 promoters” (AstraZeneca AB, priority 1999, dated 2008):

Tested on: human GABAB receptor 1 promoter P1b
Assay: Luciferase reporter assay of GABAB receptor 1 promoter P1b activity (pAM440) in transfected ND7/23 cells
Assay type: cell-based
Conditions: Forskolin 10 μM + 1-methyl-3-isobutylxanthine 0.125 mM, 24 h
Method: Reporter constructs containing R1a and R1b promoter fragments were generated by PCR using plasmid pAM 364, containing genomic sequence covering the promoter regions, as template. PCR reaction was performed by standard procedure (Perkin Elmer). Briefly, an initial denaturation at 95° C. for 4 min was followed by 35 cycles of denaturation at 95° C. for 1 min, annealing at 60° C. for 1 min, elongation at 72° C. for 1 min and finally a 7 min elongation at 72° C. […]
To determine putative promoter activity, the reporter gene constructs were introduced into mammalian cells by transfection. […] Luciferase activity in cell extracts was measured in a Luciferase Assay System (Promega), where 40 μl of cell extracts was added to a 96-well plate (Maxisorp, Nunc) and mixed with 50 μl of luciferase substrate. Luciferase activity was then measured in a LUMIstar (BMG Lab technologies). As internal control for transfection efficiency, β-Galactosidase (β-Gal.) activity was measured in 96-well plate (Maxisorp, Nunc) using a β-Galactosidase Enzyme Assay (Promega) according to suppliers protocol.
ND7/23 cells (4×10^5) were transfected with promoter-luciferase constructs as described above. […] After incubation, cells were harvested and luciferase activity measured. Luciferase activity, minus background, is shown as arbitrary light units measured in 40 μl of cell extracts. […]

## CC(C)Cn1c(=O)n(C)c(=O)c2[nH]cnc21 [IBMX, 1-methyl-3-isobutylxanthine]
  further enhancement of forskolin induced expression: does not show a significant difference
